SMILES strings stand for the structures.

For test [1], the target named is T1, Hsp70 (Homo sapiens, UniProt P0DMV8). Nature of the test: ITC ([…]), SPR ([…]), DSC (Tm +[…]°C). The format is binding. Further details: gene HSPA1A; full-length, nucleotide-free.
The target of test [2] is T1, Hsp70. Further details: gene HSPA1A.
In test [3] the target is T1, Hsp70. Description: crystal structure of NBD ([…] Å), ITC ([…]), SPR ([…]), DSC, ATPase inhibition (Ki […]; […] with Hdj1). In kind it is binding. The arrangement: gene HSPA1A; full-length (ITC, SPR); NBD residues 1–382 (crystal structure).

T1 sequence (P0DMV8 2-641): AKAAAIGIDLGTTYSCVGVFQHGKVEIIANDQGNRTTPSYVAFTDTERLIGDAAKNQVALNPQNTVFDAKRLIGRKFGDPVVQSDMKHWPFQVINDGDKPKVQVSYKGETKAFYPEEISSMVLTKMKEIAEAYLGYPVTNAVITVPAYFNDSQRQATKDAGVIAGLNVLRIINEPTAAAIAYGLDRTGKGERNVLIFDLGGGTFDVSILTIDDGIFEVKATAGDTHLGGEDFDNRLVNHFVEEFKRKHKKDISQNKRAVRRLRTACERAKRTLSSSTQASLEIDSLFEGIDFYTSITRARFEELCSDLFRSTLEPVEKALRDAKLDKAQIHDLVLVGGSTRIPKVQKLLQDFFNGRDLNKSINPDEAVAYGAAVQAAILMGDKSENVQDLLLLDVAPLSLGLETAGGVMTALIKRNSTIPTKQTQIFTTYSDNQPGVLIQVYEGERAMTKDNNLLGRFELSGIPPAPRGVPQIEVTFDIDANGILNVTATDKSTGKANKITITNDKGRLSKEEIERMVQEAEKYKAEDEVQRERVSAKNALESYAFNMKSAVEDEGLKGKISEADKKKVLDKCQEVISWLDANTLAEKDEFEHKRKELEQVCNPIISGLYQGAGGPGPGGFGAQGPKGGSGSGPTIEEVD

`Nc1ncnc2c1ncn2[C@@H]1O[C@H](COP(=O)(O)OP(=O)(O)O)[C@@H](O)[C@H]1O` [ADP]: the affinity at Hsp70 [1], expressed as Kd, was 0.0077 ± 0.0004 µM.

For the compound `Nc1ncnc2c1ncn2[C@@H]1O[C@H](COP(=O)(O)OP(=O)(O)OP(=O)(O)O)[C@@H](O)[C@H]1O` [ATP], at Hsp70 [2], the Km stood at 9.9 ± 1.3 µM.

At Hsp70 [3], `N#Cc1ccc(COC[C@H]2O[C@@H](n3c(NCc4ccc(Cl)c(Cl)c4)nc4c(N)ncnc43)[C@H](O)[C@@H]2O)cc1` [VER-155008] showed a Kd of 0.228 ± 0.016 µM.

Values taken from publication PMC3827032, “Functional Analysis of Hsp70 Inhibitors” (PLoS ONE, 2013).
